We go through 30 compounds from PubChem BioAssay (NCI).

Experiment in all cases: DTP human tumour cell line panel, 48 h
Assay [1] has as its system A498 renal.
Assay [2] concerns 786-0 renal.
Assay [3] has as its system SF-268 CNS.
Assay [4] has as its system RXF 393 renal.
Assay [5] has as its system MOLT-4 leukemia.
Assay [6] relates to OVCAR-3 ovarian.
Assay [7] has as its system RPMI-8226 leukemia.
Assay [8] has as its system OVCAR-5 ovarian.
Assay [9] concerns TK-10 renal.
Assay [10] has as its system SR leukemia.

As a reminder, the TGI is the concentration giving total growth inhibition. The GI50 is the concentration giving 50% growth inhibition.

Several values for one entry are separate records, joined by “and”; a condition that tells them apart may be missing. Equal values may be shown once.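 Interpolation was linear, between the two tested concentrations surrounding the appropriate level; five concentrations were tested over 48 hours in 96-well plates. GI50 marks 50% less growth. TGI marks complete inhibition of growth.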

On to `O=C(Nc1ccc(S(=O)(=O)/N=c2\ncccn2C(=O)C(C(F)(F)F)C(F)(F)F)cc1)C(C(F)(F)F)C(F)(F)F`, for which the TGI in [1], in assay [2], in assay [3], in [4], in [5] and in [6] was more than 100 µM throughout. The concentration for total growth inhibition (TGI) in assay [7], in assay [8] and in [9] was more than 100 µM each time.
As for `C[C@@H]1CC(=O)C[C@@H]2CC[C@H]3[C@@H]4CC[C@H](OC(=O)c5cccc6cc7ccccc7nc56)[C@H]4CC[C@@H]3[C@H]21`, the concentration for total growth inhibition (TGI) in [2] worked out at 23.5 µM; in assay [3], 20.9 µM; in [4], 34.9 µM; in assay [5], 31.7 µM; in [6], 29.8 µM; in [8] it was 34.9 µM. In assay [9], this compound yielded a concentration for total growth inhibition (TGI) of 65.9 µM.
For `Cc1cc(S(=O)(=O)Nc2n[nH]c(N)n2)c(Cl)cc1Cl`, the total growth inhibition concentration (TGI) in [1], in [2], in [3], in [4], in [5] and in [6] was more than 10 µM each time. Moreover, the TGI in assay [7], in assay [8] and in assay [9] was more than 10 µM throughout.
`O=C(/C=C(\C(=O)c1cccs1)c1cccs1)c1ccc(C(=O)/C=C(\C(=O)c2cccs2)c2cccs2)cc1`: the concentration for total growth inhibition (TGI) in assay [2], in [3], in [4], in assay [5], in assay [7] and in assay [9] was more than 100 µM in each case. In assay [10], this compound showed a TGI of more than 100 µM.
Regarding `O=C1CSC(c2ccc(Cl)cc2Cl)N1c1ccc(Oc2ccc(Cl)cc2)c(Cl)c1` (stereo not given), the TGI is 50.1 µM in assay [2]; 51.1 µM in assay [3]; 81.5 µM in [5]; 65.9 µM in assay [6]; 68.3 µM in assay [7]; more than 100 µM in assay [8]. For the same compound, the concentration for total growth inhibition (TGI) was more than 100 µM in [9] and 42.8 µM in assay [10].
For the compound `COc1ccccc1C1(c2c(OC)c(=O)c2=O)SCCCS1`, the total growth inhibition concentration (TGI) in assay [1], in assay [2], in assay [3], in assay [4], in assay [5] and in assay [6] was more than 100 µM throughout. In addition, the total growth inhibition concentration (TGI) in assay [7], in assay [8] and in assay [9] was more than 100 µM each time.
For `CC(C)(C)N/N=C(\C(=O)NC1=C(Cl)C(=O)c2ccccc2C1=O)C1C=CCS1(=O)=O` (stereo not given), the concentration for total growth inhibition (TGI) is 36.7 µM in assay [1]; 54 µM in assay [2]; more than 100 µM in [3]; more than 100 µM in assay [5]; 9.38 µM in assay [6]; more than 100 µM in assay [7]. Besides, the concentration for total growth inhibition (TGI) is 35.5 µM in [8] and more than 100 µM in assay [9].
With `COC(=O)c1cc(OC)c(OC)c(OC)c1-c1cc2c(cc1C=O)OCO2`, the TGI in assay [1], in assay [2], in [3], in assay [4], in [5] and in assay [6] was more than 10 µM in each case. Also, the TGI in assay [7], in [8] and in assay [9] was more than 10 µM in each case.
Regarding `Cn1cc(C(=O)c2ccccc2)cc(C(=O)c2ccccc2)c1=O`, the total growth inhibition concentration (TGI) in assay [2], in assay [3], in assay [4], in assay [5], in assay [6] and in [7] was more than 100 µM in each case. Further, the TGI in [8], in assay [9] and in [10] was more than 100 µM each time.
`NC(Cc1ccc2nc3c4ccccc4c(=O)cc-3oc2c1)C(=O)O` (stereo not given): the TGI in [2], in [3], in [4], in assay [6], in [7] and in assay [8] was more than 100 µM in each case. Moreover, the TGI in [9] and in assay [10] was more than 100 µM each time.
Turning to `CC(=O)OC1[C@H](OC(C)=O)C2=C(C)[C@@H](OC(C)=O)C[C@@]2(C(C)(C)O)[C@@H](OC(C)=O)[C@H]2[C@@]1(C)[C@@H](OC(C)=O)CC(OC(C)=O)[C@]21CO1` (stereo not given in full), the TGI in assay [2], in assay [3], in assay [4], in [5], in [6] and in assay [7] was more than 100 µM throughout. Moreover, the TGI in assay [8], in assay [9] and in assay [10] was more than 100 µM throughout.
On to `CCn1c(CCl)nc2c1C(=O)c1ccccc1C2=O`, for which the total growth inhibition concentration (TGI) was more than 100 µM in assay [2]; 6.65 µM in assay [3]; 3.29 µM in [4]; 3.05 µM in [6]; more than 100 µM in assay [7]; 3.25 µM in assay [8]. The TGI in [9] amounted to 8.73 µM.
`CC(C)(NC(=O)OCc1ccccc1)C(=O)OC(=O)C(C)(C)NC(=O)OCc1ccccc1`: the TGI in assay [1], in [2], in [5], in [6], in [7] and in [8] was more than 100 µM throughout.
With `CNc1ncnc2c1nc(NC1CCCC1)n2C1OC(CO)C(O)C1O` (stereo not given), the total growth inhibition concentration (TGI) in [1], in assay [2], in assay [3], in [4], in [5] and in assay [6] was more than 100 µM in each case. Also, the TGI in assay [8] and in assay [9] was more than 100 µM each time.
`O=c1[nH]c(NCc2ccc(Cl)cc2)nc2nc[nH]c12`: the TGI in assay [1], in [2], in assay [3], in assay [4], in assay [5] and in assay [6] was more than 100 µM each time. The TGI in assay [7], in assay [8] and in assay [9] was more than 100 µM throughout.
Consider `C#CCN(Cc1ccc2nc(-c3ccccc3)c(N)nc2c1)c1cc(OC)c(OC)c(OC)c1`, for which the TGI is more than 100 µM in assay [2]; more than 100 µM in assay [3]; 96.2 µM in assay [4]; 35.7 µM in assay [5]; 59 µM in assay [6]; 32.3 µM in assay [7]. Also, the TGI is more than 100 µM in assay [8], more than 100 µM in [9] and 39.2 µM in [10].
In the case of `CN(CCNC(=O)c1c[nH]c2c1Cc1ccccc1-2)CCNC(=O)c1c[nH]c2c1Cc1ccccc1-2`, the TGI was 44.8 µM in [2]; more than 100 µM in assay [3]; more than 100 µM in assay [4]; 63.7 µM in [5]; 73.7 µM in assay [6]; 73.4 µM in assay [7]. Also, the TGI in [8], in assay [9] and in assay [10] was more than 100 µM in each case.
As for `CCn1c2ccccc2c2c(-c3ccccc3)cc3c(c21)C(=O)N(c1ccccc1)C3=O`, the TGI in assay [1], in assay [2], in assay [3], in assay [5], in assay [6] and in assay [8] was more than 100 µM in each case. For the same compound, the TGI in assay [9] and in assay [10] was more than 100 µM each time.
Consider `COc1nc2ccc(COc3ccc(C(=O)O)cc3)cc2nc1OC`, for which the TGI in [1], in [2], in assay [3], in assay [5], in [6] and in assay [8] was more than 100 µM in each case. The same compound yielded a TGI in assay [10] of more than 100 µM.
On to `Cc1ccc(C2(c3ccc(F)cc3)OC(=O)c3ccccc32)c(O)c1` (stereo not given), for which the total growth inhibition concentration (TGI) in assay [1] turned out to be 36.7 µM; in assay [2], 32.1 µM; in assay [3], 86.7 µM; in assay [5], 76.3 µM; in [6], 17.9 µM; in assay [7], 59.8 µM. The values for the total growth inhibition concentration (TGI) in [8] and in assay [9] were 28.5 µM and 29.6 µM, respectively.
Consider `O=c1c(Cc2ccc(Cl)cc2)nnc2sc(-c3ccc(-c4ccc(Cl)cc4Cl)o3)nn12`, for which the TGI in assay [1], in assay [2], in [3], in [4], in assay [5] and in assay [6] was more than 100 µM throughout. Moreover, the TGI in [7], in [8] and in assay [9] was more than 100 µM each time.
As to `CCc1c(-c2ccc(OC)cc2)oc(OC)c(C)c1=O`, the concentration for total growth inhibition (TGI) in [1], in assay [2], in assay [3], in assay [4], in assay [5] and in assay [6] was more than 100 µM in each case. The TGI in assay [8] and in assay [9] was more than 100 µM throughout.
Turning to `C/C(=N\Nc1nc2ccccc2s1)c1cc2ccccc2cn1`, the TGI in [1] was 29 µM; in assay [2], 9.35 µM; in assay [3], more than 100 µM; in assay [4], 16 µM; in assay [6], 6.96 µM; in [7] it was more than 100 µM. The results for the TGI in assay [8] and in assay [9] were 54.5 µM and more than 100 µM, respectively.
Regarding `COc1cc(C(C)O)c[n+](CCC2CNc3ccccc32)c1` (stereo not given), the concentration for total growth inhibition (TGI) in assay [1] was more than 100 µM; in assay [2], more than 100 µM; in [3], 93 µM; in assay [5] it was more than 100 µM; in [6] it was more than 100 µM; in assay [7], more than 100 µM. In assay [10], this compound had a total growth inhibition concentration (TGI) of more than 100 µM.
Consider `COc1cc(-c2c3c(cc4c2OCO4)[C@@H](Nc2ccc(-c4ccc(-c5ccc(N[C@@H]6c7cc8c(cc7C(c7cc(OC)c(O)c(OC)c7)[C@H]7C(=O)OC[C@H]67)OCO8)cc5)cc4)cc2)[C@H]2COC(=O)[C@@H]2C3)cc(OC)c1O` (stereo not given in full), for which the TGI stood at 21.4 µM in assay [1]; 6.22 µM in [2]; 10.9 µM in assay [3]; 4.85 µM in [6]; 17 µM in assay [8]; 8.59 µM in assay [9].
Regarding `COc1cc2c(cc1OC)C(=O)/C(=C/c1cc(C)cc(C)c1)C2`, the TGI in assay [1] is 48 µM; in assay [2] it was more than 44.6 µM; in assay [3] it was more than 100 µM; in [4] it was 0.604 µM; in [5], more than 90.3 µM; in assay [6] it was 1.04 µM. In addition, the TGI in assay [7] is more than 42.6 µM; in [8] it was more than 86.4 µM; in [9] it was more than 100 µM.
For the compound `CC1(C)OC2OC(C(COS(=O)(=O)C(F)(F)F)N=[N+]=[N-])C(OC(=O)c3ccccc3)C2O1` (stereo not given), the total growth inhibition concentration (TGI) in assay [1], in assay [2], in assay [3], in assay [4], in assay [5] and in assay [6] was more than 100 µM in each case. For the same compound, the total growth inhibition concentration (TGI) in assay [7], in [8] and in assay [9] was more than 100 µM throughout. Moreover, in [7], the GI50 is > 100 µM and 26.7 µM.
As to `c1ccc2c(c1)cc1n2CCc2c-1[nH]c1ccccc21`, the total growth inhibition concentration (TGI) in assay [2], in [3], in assay [4], in [5], in assay [6] and in [7] was more than 10 µM throughout. Further, the TGI in [8], in assay [9] and in [10] was more than 10 µM in each case.
Consider `CCOC(=O)C1(C#N)CC1`, for which the total growth inhibition concentration (TGI) in assay [2], in assay [3], in assay [4], in assay [5], in assay [8] and in [9] was more than 100 µM throughout. The total growth inhibition concentration (TGI) in assay [10] is more than 100 µM.
As to `CCCCOC(=O)C1CC[C@H]2[C@@H]3CCc4cc(OC(=O)c5cccc6c(=O)c7ccccc7[nH]c56)ccc4[C@H]3CC[C@]12C` (stereo not given in full), the total growth inhibition concentration (TGI) in assay [1] is 16.7 µM; in assay [2], 17 µM; in assay [3], 19.6 µM; in assay [4], 17 µM; in assay [5], 21.7 µM; in assay [6] it was 15.3 µM. In addition, the TGI in [7] is 20.6 µM; in assay [8] it was 19.8 µM; in [9], 14.7 µM.
